System: Key Grass and Sedge Weeds as well as Grass Crops
Assay: Post-emergent Test II herbicidal activity (Table 6)
Assay type: in vivo
Conditions: post-emergence, 336 h, CYPES: yellow nutsedge (Cyperus esculentus), 140 g ai/ha, read-out: Visual Growth Reduction (%) 14 Days After Application, CYPES
Summary of the method: (§1)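 Post-emergence foliar spray, 187 L/ha, track sprayer at 43 cm above canopy. Carrier: acetone/water/IPA/DMSO/Atplus 411F/Triton X-155. Plants at 1st–2nd true leaf; subirrigated afterwards; % injury scored visually at 14 d.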

Compound | pest or weed control at 140 g/ha
COC(=O)c1nc(-c2ccc(I)c(F)c2F)c(F)c(N)c1Cl [Compound 99] | 95 to 100%

Same assay, conditions: post-emergence, 336 h, DIGSA: crabgrass (Digitaria sanguinalis), 70 g ai/ha, read-out: Visual Growth Reduction (%) 14 Days After Application, DIGSA

Compound | pest or weed control at 70 g/ha
COC(=O)c1nc(-c2ccc(I)c(F)c2F)c(F)c(N)c1Cl [Compound 99] | 75 to 84%

Same assay, conditions: post-emergence, 336 h, DIGSA: crabgrass (Digitaria sanguinalis), 140 g ai/ha, read-out: Visual Growth Reduction (%) 14 Days After Application, DIGSA

Compound | pest or weed control at 140 g/ha
COC(=O)c1nc(-c2ccc(I)c(F)c2F)c(F)c(N)c1Cl [Compound 99] | 85 to 94%

Same assay, conditions: post-emergence, 336 h, ECHCG: barnyardgrass (Echinochloa crus-galli), 70 g ai/ha, read-out: Visual Growth Reduction (%) 14 Days After Application, ECHCG

Compound | pest or weed control at 70 g/ha
COC(=O)c1nc(-c2ccc(I)c(F)c2F)c(F)c(N)c1Cl [Compound 99] | 95 to 100%

Same assay, conditions: post-emergence, 336 h, ECHCG: barnyardgrass (Echinochloa crus-galli), 140 g ai/ha, read-out: Visual Growth Reduction (%) 14 Days After Application, ECHCG

Compound | pest or weed control at 140 g/ha
COC(=O)c1nc(-c2ccc(I)c(F)c2F)c(F)c(N)c1Cl [Compound 99] | 95 to 100%

Same assay, conditions: post-emergence, 336 h, ORYSA: rice (Oryza sativa), crop, 70 g ai/ha, read-out: Visual Growth Reduction (%) 14 Days After Application, ORYSA

Compound | pest or weed control at 70 g/ha
COC(=O)c1nc(-c2ccc(I)c(F)c2F)c(F)c(N)c1Cl [Compound 99] | 0 to 29%

Same assay, conditions: post-emergence, 336 h, ORYSA: rice (Oryza sativa), crop, 140 g ai/ha, read-out: Visual Growth Reduction (%) 14 Days After Application, ORYSA

Compound | pest or weed control at 140 g/ha
COC(=O)c1nc(-c2ccc(I)c(F)c2F)c(F)c(N)c1Cl [Compound 99] | 0 to 29%

Same assay, conditions: post-emergence, 336 h, SETFA: giant foxtail (Setaria faberi), 70 g ai/ha, read-out: Visual Growth Reduction (%) 14 Days After Application, SETFA

Compound | pest or weed control at 70 g/ha
COC(=O)c1nc(-c2ccc(I)c(F)c2F)c(F)c(N)c1Cl [Compound 99] | 95 to 100%

Same assay, conditions: post-emergence, 336 h, SETFA: giant foxtail (Setaria faberi), 140 g ai/ha, read-out: Visual Growth Reduction (%) 14 Days After Application, SETFA

Compound | pest or weed control at 140 g/ha
COC(=O)c1nc(-c2ccc(I)c(F)c2F)c(F)c(N)c1Cl [Compound 99] | 95 to 100%

Same assay, conditions: post-emergence, 336 h, SORVU: grain sorghum (Sorghum vulgare), 70 g ai/ha, read-out: Visual Growth Reduction (%) 14 Days After Application, SORVU

Compound | pest or weed control at 70 g/ha
COC(=O)c1nc(-c2ccc(I)c(F)c2F)c(F)c(N)c1Cl [Compound 99] | 95 to 100%

Same assay, conditions: post-emergence, 336 h, SORVU: grain sorghum (Sorghum vulgare), 140 g ai/ha, read-out: Visual Growth Reduction (%) 14 Days After Application, SORVU

Compound | pest or weed control at 140 g/ha
COC(=O)c1nc(-c2ccc(I)c(F)c2F)c(F)c(N)c1Cl [Compound 99] | 95 to 100%

Same assay, conditions: post-emergence, 336 h, TRZSS (wheat, Triticum aestivum), crop, 70 g ai/ha, read-out: Visual Growth Reduction (%) 14 Days After Application, TRZSS

Compound | pest or weed control at 70 g/ha
COC(=O)c1nc(-c2ccc(I)c(F)c2F)c(F)c(N)c1Cl [Compound 99] | 45 to 59%

Same assay, conditions: post-emergence, 336 h, TRZSS (wheat, Triticum aestivum), crop, 140 g ai/ha, read-out: Visual Growth Reduction (%) 14 Days After Application, TRZSS

Compound | pest or weed control at 140 g/ha
COC(=O)c1nc(-c2ccc(I)c(F)c2F)c(F)c(N)c1Cl [Compound 99] | 60 to 74%

Same assay, conditions: post-emergence, 336 h, ZEAMX: maize, corn (Zea mays), crop, 70 g ai/ha, read-out: Visual Growth Reduction (%) 14 Days After Application, ZEAMX

Compound | pest or weed control at 70 g/ha
COC(=O)c1nc(-c2ccc(I)c(F)c2F)c(F)c(N)c1Cl [Compound 99] | 95 to 100%

Same assay, conditions: post-emergence, 336 h, ZEAMX: maize, corn (Zea mays), crop, 140 g ai/ha, read-out: Visual Growth Reduction (%) 14 Days After Application, ZEAMX

Compound | pest or weed control at 140 g/ha
COC(=O)c1nc(-c2ccc(I)c(F)c2F)c(F)c(N)c1Cl [Compound 99] | 95 to 100%

System: Key Broadleaf Weed and Crop Species
Assay: Post-emergent Test II herbicidal activity (Table 5)
Assay type: in vivo
Conditions: post-emergence, 336 h; ABUTH: velvetleaf (Abutilon theophrasti); application rate 70 g ai/ha; 14 days after application; read-out: Visual Growth Reduction (%) 14 Days After Application, ABUTH
Summary of the method: as §1

Compound | pest or weed control at 70 g/ha
COC(=O)c1nc(-c2ccc(I)c(F)c2F)c(F)c(N)c1Cl [Compound 99] | 95 to 100%

Same assay, conditions: post-emergence, 336 h; ABUTH: velvetleaf (Abutilon theophrasti); application rate 140 g ai/ha; 14 days after application; read-out: Visual Growth Reduction (%) 14 Days After Application, ABUTH

Compound | pest or weed control at 140 g/ha
COC(=O)c1nc(-c2ccc(I)c(F)c2F)c(F)c(N)c1Cl [Compound 99] | 95 to 100%

Same assay, conditions: post-emergence, 336 h; AMARE: redroot pigweed (Amaranthus retroflexus); application rate 70 g ai/ha; 14 days after application; read-out: Visual Growth Reduction (%) 14 Days After Application, AMARE

Compound | pest or weed control at 70 g/ha
COC(=O)c1nc(-c2ccc(I)c(F)c2F)c(F)c(N)c1Cl [Compound 99] | 95 to 100%

Same assay, conditions: post-emergence, 336 h; AMARE: redroot pigweed (Amaranthus retroflexus); application rate 140 g ai/ha; 14 days after application; read-out: Visual Growth Reduction (%) 14 Days After Application, AMARE

Compound | pest or weed control at 140 g/ha
COC(=O)c1nc(-c2ccc(I)c(F)c2F)c(F)c(N)c1Cl [Compound 99] | 95 to 100%

Same assay, conditions: post-emergence, 336 h; BRSNN: oilseed-rape, canola (Brassica napus); application rate 70 g ai/ha; 14 days after application; read-out: Visual Growth Reduction (%) 14 Days After Application, BRSNN

Compound | pest or weed control at 70 g/ha
COC(=O)c1nc(-c2ccc(I)c(F)c2F)c(F)c(N)c1Cl [Compound 99] | 95 to 100%

Same assay, conditions: post-emergence, 336 h; BRSNN: oilseed-rape, canola (Brassica napus); application rate 140 g ai/ha; 14 days after application; read-out: Visual Growth Reduction (%) 14 Days After Application, BRSNN

Compound | pest or weed control at 140 g/ha
COC(=O)c1nc(-c2ccc(I)c(F)c2F)c(F)c(N)c1Cl [Compound 99] | 95 to 100%

Same assay, conditions: post-emergence, 336 h; CHEAL: lambsquarters (Chenopodium album); application rate 70 g ai/ha; 14 days after application; read-out: Visual Growth Reduction (%) 14 Days After Application, CHEAL

Compound | pest or weed control at 70 g/ha
COC(=O)c1nc(-c2ccc(I)c(F)c2F)c(F)c(N)c1Cl [Compound 99] | 95 to 100%

Same assay, conditions: post-emergence, 336 h; CHEAL: lambsquarters (Chenopodium album); application rate 140 g ai/ha; 14 days after application; read-out: Visual Growth Reduction (%) 14 Days After Application, CHEAL

Compound | pest or weed control at 140 g/ha
COC(=O)c1nc(-c2ccc(I)c(F)c2F)c(F)c(N)c1Cl [Compound 99] | 95 to 100%

Same assay, conditions: post-emergence, 336 h; EPHHL: wild poinsettia (Euphorbia heterophylla); application rate 70 g ai/ha; 14 days after application; read-out: Visual Growth Reduction (%) 14 Days After Application, EPHHL

Compound | pest or weed control at 70 g/ha
COC(=O)c1nc(-c2ccc(I)c(F)c2F)c(F)c(N)c1Cl [Compound 99] | 95 to 100%

Same assay, conditions: post-emergence, 336 h; EPHHL: wild poinsettia (Euphorbia heterophylla); application rate 140 g ai/ha; 14 days after application; read-out: Visual Growth Reduction (%) 14 Days After Application, EPHHL

Compound | pest or weed control at 140 g/ha
COC(=O)c1nc(-c2ccc(I)c(F)c2F)c(F)c(N)c1Cl [Compound 99] | 95 to 100%

Same assay, conditions: post-emergence, 336 h; HELAN: sunflower (Helianthus annuus); application rate 70 g ai/ha; 14 days after application; read-out: Visual Growth Reduction (%) 14 Days After Application, HELAN

Compound | pest or weed control at 70 g/ha
COC(=O)c1nc(-c2ccc(I)c(F)c2F)c(F)c(N)c1Cl [Compound 99] | 95 to 100%

Same assay, conditions: post-emergence, 336 h; HELAN: sunflower (Helianthus annuus); application rate 140 g ai/ha; 14 days after application; read-out: Visual Growth Reduction (%) 14 Days After Application, HELAN

Compound | pest or weed control at 140 g/ha
COC(=O)c1nc(-c2ccc(I)c(F)c2F)c(F)c(N)c1Cl [Compound 99] | 95 to 100%

Same assay, conditions: post-emergence, 336 h; VIOTR: wild pansy (Viola tricolor); application rate 70 g ai/ha; 14 days after application; read-out: Visual Growth Reduction (%) 14 Days After Application, VIOTR

Compound | pest or weed control at 70 g/ha
COC(=O)c1nc(-c2ccc(I)c(F)c2F)c(F)c(N)c1Cl [Compound 99] | 95 to 100%

Same assay, conditions: post-emergence, 336 h; VIOTR: wild pansy (Viola tricolor); application rate 140 g ai/ha; 14 days after application; read-out: Visual Growth Reduction (%) 14 Days After Application, VIOTR

Compound | pest or weed control at 140 g/ha
COC(=O)c1nc(-c2ccc(I)c(F)c2F)c(F)c(N)c1Cl [Compound 99] | 95 to 100%

System: not given
Assay: not given
Conditions: not given

melting point | Compound
168 to 170 °C | COC(=O)c1nc(-c2ccc(I)c(F)c2F)c(F)c(N)c1Cl [Compound 99]

Source: patent US9113629B2, “4-amino-6-(4-substituted-phenyl)-picolinates and 6-amino-2-(4-substituted-phenyl)-pyrimidine-4-carboxylates and their use as herbicides” (DOW AGROSCIENCES LLC, priority 2013, dated 2015)
